Literature values, collected in patent US20160303050A1, “FORMULATIONS CONTAINING DIACEREIN AND METHODS OF LOWERING BLOOD LEVELS OF URIC ACID USING THE SAME” (TWi Biotechnology, Inc., priority 2015, published 2016).

Details: single oral administration of 50 mg, healthy volunteers

Structure (SMILES): CC(=O)Oc1cccc2c1C(=O)c1c(OC(C)=O)cc(C(=O)O)cc1C2=O [diacerein, 4,5-bis (acetyloxy) 9,10-dihydro-4,5-dihydroxy-9,10-dioxo-2-anthracenecarboxylic acid]
- fasting Tmax (fasting): 2.4 h
- Tmax with a meal (with a meal): 5.2 h
